Experimental data as given in patent publication US7776847B2, “Benzisothiazoles useful for treating or preventing HCV infection” (priority 2005, dated 2010).

test system: HCV replicon; test: HCV replicon luciferase reporter assay; type: cell-based; conditions: Hepatitis C virus, Table 5; read-out: IC50
Protocol: The inhibitory activity of certain exemplary compounds of the invention was confirmed using an HCV replicon assay. The HCV replicon can include such features as the HCV IRES, the HCV 3′ untranslated region, selected HCV genes encoding HCV polypeptides, selectable markers, and a reporter gene such as luciferase, GFP, etc. In the assay, actively dividing replicon-comprising cells were seeded at a density of between about 5,000 and 7,500 cells/well onto 96 well plates (about 90 μl of cells per well) and incubated at 37° C. and 5% CO2 for 24 hours. Then, the test compound (in a volume of about 10 μL) was added at various concentrations to each well and the cells were incubated for an additional 24-48 hours. The cells were harvested, and HCV replication or translation was monitored via a reporter assay, e.g., a luciferase reporter assay. The media was aspirated from each cell and Bright-Glo ([…].) luciferase assay reagents were added to each well according to the manufacturer's instructions. In this assay, the amount of test compound that yielded a 50% reduction in luciferase activity (IC50) was determined.

Q: With `COC(=O)c1ccc(S(=O)(=O)N(CCCNc2nsc3ccccc23)Cc2ccc(-c3ccc(OC)cc3)cc2)n1C` [Compound 317, methyl 5-(N-(3-(benzo[d]isothiazol-3-ylamino)propyl)-N-((4′-methoxybiphenyl-4-yl)methyl)sulfamoyl)-1-methyl-1H-pyrrole-2-carboxylate] as the compound, how does the IC50 read?
A: < 5 µM

Q: Which IC50 does the source give for `COc1ccc(-c2ccc(CN(CCCNc3nsc4ccccc34)C(=O)CC#N)cc2)cc1` [Compound 319, N-(3-(benzo[d]isothiazol-3-ylamino)propyl)-2-cyano-N-((4′-methoxybiphenyl-4-yl)methyl)acetamide] here?
A: < 5 µM

Q: How did the IC50 turn out when `COc1ccc(-c2ccc(CN(CCCNc3nsc4ccccc34)C(=O)CC3CCCN3)cc2)cc1` (stereo not shown) [Compound 320, N-(3-(benzo[d]isothiazol-3-ylamino)propyl)-N-((4′-methoxybiphenyl-4-yl)methyl)-2-(pyrrolidin-2-yl)acetamide] was run?
A: < 5 µM

Q: Which IC50 does the source give for `CCCCc1ccc(C(=O)NCCCNc2n[s+]([O-])c3ccccc23)cc1` (stereo not shown) [Compound 321, 4-butyl-N-{3-[(1-oxido-1,2-benzisothiazol-3-yl)amino]propyl}benzamide] here?
A: > 5 µM

Q: Which IC50 does the source give for `CCCCc1ccc(C(=O)NCCCNC2=NS(=O)(=O)c3ccccc32)cc1` [Compound 322, 4-butyl-N-{3-[(1,1-dioxido-1,2-benzisothiazol-3-yl)amino]propyl}benzamide] here?
A: > 5 µM

Q: How did the IC50 turn out when `COc1ccc(-c2ccc(CNCCCNC3=NS(=O)(=O)c4ccccc43)cc2)cc1` [Compound 324, N-(1,1-dioxido-1,2-benzisothiazol-3-yl)-N′-[(4′-methoxybiphenyl-4-yl)methyl]propane-1,3-diamine] was run?
A: > 5 µM

Q: Which IC50 does the source give for `O=S(=O)(NCCCNc1nsc2ccccc12)c1ccc(I)cc1` [Compound 325, N-(3-(benzo[d]isothiazol-3-ylamino)propyl)-4-iodobenzenesulfonamide] here?
A: < 5 µM

Q: For `FC(F)(F)c1ccccc1CNCCCNc1nsc2ccccc12` [Compound 326, N^1-(benzo[d]isothiazol-3-yl)-N^3-(2-(trifluoromethyl)benzyl)propane-1,3-diamine], which IC50 is on record?
A: < 5 µM

Q: How did the IC50 turn out when `COc1cc(CNCCCNc2nsc3ccccc23)c(OCc2ccccc2)cc1OC` [Compound 327, N^1-(benzo[d]isothiazol-3-yl)-N^3-(2-(benzyloxy)-4,5-dimethoxybenzyl)propane-1,3-diamine] was run?
A: < 5 µM

Q: `c1ccc(COc2cccc(CNCCCNc3nsc4ccccc34)c2)cc1` [Compound 328, N^1-(benzo[d]isothiazol-3-yl)-N^3-(3-(benzyloxy)benzyl)propane-1,3-diamine] was tested. Which IC50 did it give?
A: < 5 µM

Q: Which IC50 does the source give for `c1ccc(-c2ncc(CNCCCNc3nsc4ccccc34)[nH]2)cc1` [Compound 329, N^1-(benzo[d]isothiazol-3-yl)-N^3-((2-phenyl-1H-imidazol-4-yl)methyl)propane-1,3-diamine] here?
A: < 5 µM

Q: `c1ccc(-c2[nH]c3ccccc3c2CNCCCNc2nsc3ccccc23)cc1` [Compound 330, N^1-(benzo[d]isothiazol-3-yl)-N^3-((2-phenyl-1H-indol-3-yl)methyl)propane-1,3-diamine] was tested. Which IC50 did it give?
A: < 5 µM

Q: Which IC50 does the source give for `COc1ccc(-c2ccc(S(=O)(=O)NCCCNc3nsc4ccccc34)cc2)cc1` [Compound 331, N-(3-(benzo[d]isothiazol-3-ylamino)propyl)-4′-methoxybiphenyl-4-sulfonamide] here?
A: < 5 µM

Q: For `COc1ccc(-c2ccc(S(=O)(=O)NCCCNc3nsc4ccccc34)cc2)cc1OC` [Compound 332, N-(3-(benzo[d]isothiazol-3-ylamino)propyl)-3′,4′-dimethoxybiphenyl-4-sulfonamide], which IC50 is on record?
A: < 5 µM

Q: For `O=S(=O)(NCCCNc1nsc2ccccc12)c1ccc(-c2ccc(OC(F)(F)F)cc2)cc1` [Compound 333, N-(3-(benzo[d]isothiazol-3-ylamino)propyl)-4′-(trifluoromethoxy)biphenyl-4-sulfonamide], which IC50 is on record?
A: < 5 µM

Q: Which IC50 does the source give for `COC(=O)c1ccc(-c2ccc(S(=O)(=O)NCCCNc3nsc4ccccc34)cc2)cc1` [Compound 334, methyl 4′-(N-(3-(benzo[d]isothiazol-3-ylamino)propyl)sulfamoyl)biphenyl-4-carboxylate] here?
A: < 5 µM
